Experimental data from patent publication US11491120B2, “Pharmacological prophylactics against stress-induced affective disorders in females” (The Trustees of Columbia University in the City of New York, priority 2017, dated 2022).

Test system: female 129S6/SvEv mice
Experiment: Contextual fear conditioning (CFC), 3-shock, freezing in training and context re-exposure
Settings: for Freezing during 3-shock CFC training vs saline: 2.5, 10, or 30 mg/kg, 1 week before CFC
[1] = Contextual Fear Conditioning Re-exposure, Dunnett test Sal vs. drug (2.5), 1 week prophylactic drug
[2] = Contextual Fear Conditioning Re-exposure, Dunnett test Sal vs. drug (10), 1 week prophylactic drug
[3] = Contextual Fear Conditioning Re-exposure, Dunnett test Sal vs. drug (30), 1 week prophylactic drug
[4] = Contextual Fear Conditioning Training, Dunnett test Sal vs. drug (2.5), 1 week prophylactic drug
[5] = Contextual Fear Conditioning Training, Dunnett test Sal vs. drug (10), 1 week prophylactic drug
[6] = Contextual Fear Conditioning Training, Dunnett test Sal vs. drug (30), 1 week prophylactic drug
[7] = Ovariectomized cohort, 1 week prophylactic drug, Contextual Fear Conditioning Re-exposure, FIG. 10B, Sham mice, K (10), (2R,6R)-HNK (0.025)
[8] = Ovariectomized cohort, 1 week prophylactic drug, Contextual Fear Conditioning Re-exposure, FIG. 10C, Sham mice, K (10), (2R,6R)-HNK (0.025)
[9] = Ovariectomized, E2/P4 replacement, 1 week prophylactic drug, Contextual Fear Conditioning Re-exposure, FIG. 10E, Vehicle (hormone) mice, K (10), (2R,6R)-HNK (0.025)

Structure (SMILES): CNC1(c2ccccc2Cl)CCCCC1=O (racemic) [(R,S)-ketamine, (RS)-2-(2-chlorophenyl)-2-(methylamino)cyclohexanone]
- p, Sal vs. drug, Dunnett test: Freezing (Average), Contextual Fear Conditioning Re-exposure (2.5 mg/kg, 1 week prophylactic drug): 0.7546
- p, Sal vs. drug, Dunnett test: Freezing (Average), Contextual Fear Conditioning Re-exposure (10 mg/kg, 1 week prophylactic drug): 0.8986
- p, Sal vs. drug, Dunnett test: Freezing (Average), Contextual Fear Conditioning Re-exposure (30 mg/kg, 1 week prophylactic drug): 0.8647
- Freezing during 3-shock CFC training vs saline (female mice): did not alter freezing
- Freezing during 3-shock CFC training vs saline (female mice, listed as (R, S)-ketamine): did not alter fear encoding
- Freezing during CFC training vs saline (2.5 and 10 mg/kg, 3 days before CFC, female mice): significantly increased freezing compared to saline
- Freezing during CFC training vs saline (2.5 and 10 mg/kg, 3 days before CFC, female mice; listed as R,S)-ketamine): significantly increased freezing during the last minute
- Freezing during context re-exposure vs saline (3 days before CFC, female mice): do not affect freezing during re-exposure
- p, Freezing (min 1-5) [1]: 0.7546
- p, Freezing (min 2) [1]: 0.9996
- p, Freezing (min 3) [1]: 0.6267
- p, Freezing (min 4) [1]: 0.1951
- p, Freezing (min 5) [1]: 0.4912
- p, Freezing (min 1-5) [2]: 0.8986
- p, Freezing (min 2) [2]: 0.9240
- p, Freezing (min 3) [2]: 0.9864
- p, Freezing (min 4) [2]: 0.6904
- p, Freezing (min 5) [2]: 0.6667
- p, Freezing (min 1-5) [3]: 0.8647
- p, Freezing (min 2) [3]: 0.6079
- p, Freezing (min 3) [3]: 0.8139
- p, Freezing (min 4) [3]: 0.9885
- p, Freezing (min 5) [3]: 0.9996
- p, Freezing (min 1-5) [4]: 0.5398
- p, Freezing (min 4) [4]: 0.9957
- p, Freezing (min 5) [4]: 0.2720
- p, Freezing (min 1-5) [5]: >0.9999
- p, Freezing (min 4) [5]: 0.9996
- p, Freezing (min 5) [5]: 0.9996
- p, Freezing (min 1-5) [6]: 0.9998
- p, Freezing (min 4) [6]: >0.9999
- p, Freezing (min 5) [6]: 0.9997
- p, Freezing (min 1-5), Fisher's PLSD, OVX Sal vs OVX drug (Ovariectomized cohort, 1 week prophylactic drug, Contextual Fear Conditioning Re-exposure, FIG. 10B, OVX mice, K (10), (2R,6R)-HNK (0.025)): 0.1532
- * (significance), Freezing (min 1-5), Fisher's PLSD, Sham Sal vs Sham drug [7]: * (* p<0.05)
- p, Freezing (min 1-5), Fisher's PLSD, Sham Sal vs Sham drug [7]: 0.0290
- p, Freezing (min 1-5), Fisher's PLSD, Sham drug vs OVX drug (Ovariectomized cohort, 1 week prophylactic drug, Contextual Fear Conditioning Re-exposure, FIG. 10B, Sham vs OVX, same drug, K (10), (2R,6R)-HNK (0.025)): 0.7813
- p, Freezing Average (min 1-5), Fisher's PLSD, OVX Sal vs OVX drug (Ovariectomized cohort, 1 week prophylactic drug, Contextual Fear Conditioning Re-exposure, FIG. 10C, OVX mice, K (10), (2R,6R)-HNK (0.025)): 0.1532
- * (significance), Freezing Average (min 1-5), Fisher's PLSD, Sham Sal vs Sham drug [8]: * (* p<0.05)
- p, Freezing Average (min 1-5), Fisher's PLSD, Sham Sal vs Sham drug [8]: 0.0290
- p, Freezing Average (min 1-5), Fisher's PLSD, Sham drug vs OVX drug (Ovariectomized cohort, 1 week prophylactic drug, Contextual Fear Conditioning Re-exposure, FIG. 10C, Sham vs OVX, same drug, K (10), (2R,6R)-HNK (0.025)): 0.7813
- p, Freezing (min 1-5), Fisher's PLSD, E2/P4 Sal vs E2/P4 drug (Ovariectomized, E2/P4 replacement, 1 week prophylactic drug, Contextual Fear Conditioning Re-exposure, FIG. 10E, E2/P4 mice, K (10), (2R,6R)-HNK (0.025)): 0.7946
- * (significance), Freezing (min 1-5), Fisher's PLSD, Vehicle Sal vs Vehicle drug [9]: ** (** p<0.01)
- p, Freezing (min 1-5), Fisher's PLSD, Vehicle Sal vs Vehicle drug [9]: 0.0077
- p, Freezing (min 1-5), Fisher's PLSD, Vehicle drug vs E2/P4 drug (Ovariectomized, E2/P4 replacement, 1 week prophylactic drug, Contextual Fear Conditioning Re-exposure, FIG. 10E, Vehicle vs E2/P4, same drug, K (10), (2R,6R)-HNK (0.025)): 0.2095
